“And” between values parts separate entries of the source, which are not always exact repeats. Identical values can stand only once. “Also recorded” adds a separate entry of the source.
Molecular target: T1, GST–[T233E]SPAK kinase (Homo sapiens, UniProt Q9UEW8, T231E)
T1 construct: made in house; host or cells: E. coli
Assay: SPAK kinase assay with CATCHtide and IC50 determination
Format: biochemical
Conditions: for ZT-1a vs SPAK+MO25, kinase activity: Fig S7b
From the text: II. Experimental procedures
1. Reagents and General methods
Tissue culture reagents were from Life Technologies. P81 phosphocellulose paper was from Whatman […]
and [γ-32P]-ATP was from Perkin Elmer. […] Protein G […]
sepharose was from Amersham. DNA constructs used for transfection were purified from Escherichia coli DH5α using Qiagen or Invitrogen plasmid Maxi kits according to the manufacturer's protocol. All DNA constructs were verified by DNA sequencing.
2. Plasmids, protein expression and purification
DNA clones were from the Division of Signal Transduction Therapy (University of Dundee). The SPAK proteins were expressed in E. Coli and purified as described previously 1.
3. SPAK kinase assays and IC50 determination
SPAK kinase assays employed CATCHtide (cation chloride co-transporter peptide substrate). Peptide kinase assays, performed in triplicate, were set up in a total volume of 50 μl containing 0.5 μg GST– […]
cpm/pmol) and the indicated concentrations of inhibitor dissolved in DMSO. After incubation for 30 min at 30°C, reactions were terminated by spotting 40 μl of the reaction mix onto P81 phosphocellulose paper and immersion in 50 mM phosphoric acid. The papers were washed extensively and incorporation of [γ-32P]ATP into CATCHtide was quantified by Cerenkov counting.
IC50 values were calculated with GraphPad Prism using non-linear regression analysis.
4. Fluorescence polarization […]
concentrations between 0.00001 to 1 mM. Data points are the means of three determinations, with error […]
A Supplemental Fig. 7 Effects of increasing concentrations of ZT-1a on SPAK activity in the absence […]
the absence or presence of five-fold molar excess of wild-type MO25α. b Kinetic data determined for B ZT-1a in the absence or presence of five-fold molar excess of wild-type MO25α. Data are means of […]
presence of wild-type MO25α.

## Cc1cc(C(C#N)c2ccc(Cl)cc2)c(Cl)cc1NC(=O)c1cc(Cl)ccc1O (centres unmarked) [ZT-1a, 5-chloro-N-(5-chloro-4-((4-chlorophenyl)(cyano)methyl)-2-methylphenyl)-2-hydroxybenzamide]
  change of SPAK IC50 values on addition of MO25α: not significantly altered
ATP 0.01 mM, inhibitor 1e-5 uM
  SPAK kinase activity signal (Fig S3 source data): 911 and 899 and 905
ATP 0.01 mM, inhibitor 0.0001 uM
  SPAK kinase activity signal (Fig S3 source data): 906 and 879 and 883
ATP 0.01 mM, inhibitor 0.001 uM
  SPAK kinase activity signal (Fig S3 source data): 901 and 899 and 907
ATP 0.01 mM, inhibitor 0.003 uM
  SPAK kinase activity signal (Fig S3 source data): 805
ATP 0.01 mM, inhibitor 0.03 uM
  SPAK kinase activity signal (Fig S3 source data): 855 and 847 and 825
ATP 0.01 mM, inhibitor 0.1 uM
  SPAK kinase activity signal (Fig S3 source data): 867 and 893 and 851
ATP 0.01 mM, inhibitor 0.3 uM
  SPAK kinase activity signal (Fig S3 source data): 813 and 804 and 787
ATP 0.01 mM, inhibitor 1 uM
  SPAK kinase activity signal (Fig S3 source data): 756 and 821 and 793
ATP 0.01 mM, inhibitor 3 uM
  SPAK kinase activity signal (Fig S3 source data): 663 and 688 and 705
ATP 0.01 mM, inhibitor 10 uM
  SPAK kinase activity signal (Fig S3 source data): 478 and 525 and 503
ATP 0.01 mM, inhibitor 100 uM
  SPAK kinase activity signal (Fig S3 source data): 456 and 325 and 371
ATP 0.01 mM, inhibitor 1000 uM
  SPAK kinase activity signal (Fig S3 source data): 220 and 194 and 213
ATP 0.1 mM, inhibitor 1e-5 uM
  SPAK kinase activity signal (Fig S3 source data): 902 and 887 and 849
ATP 0.1 mM, inhibitor 0.0001 uM
  SPAK kinase activity signal (Fig S3 source data): 867 and 845 and 874
ATP 0.1 mM, inhibitor 0.001 uM
  SPAK kinase activity signal (Fig S3 source data): 844 and 856 and 837
ATP 0.1 mM, inhibitor 0.03 uM
  SPAK kinase activity signal (Fig S3 source data): 798 and 815 and 804
ATP 0.1 mM, inhibitor 0.1 uM
  SPAK kinase activity signal (Fig S3 source data): 796 and 805 and 782
ATP 0.1 mM, inhibitor 0.3 uM
  SPAK kinase activity signal (Fig S3 source data): 796 and 786 and 754
ATP 0.1 mM, inhibitor 1 uM
  SPAK kinase activity signal (Fig S3 source data): 802 and 788 and 766
ATP 0.1 mM, inhibitor 3 uM
  SPAK kinase activity signal (Fig S3 source data): 706 and 686 and 718
ATP 0.1 mM, inhibitor 10 uM
  SPAK kinase activity signal (Fig S3 source data): 561 and 556 and 583
ATP 0.1 mM, inhibitor 100 uM
  SPAK kinase activity signal (Fig S3 source data): 226 and 309 and 284
ATP 0.1 mM, inhibitor 1000 uM
  SPAK kinase activity signal (Fig S3 source data): 187 and 106 and 158
ATP 1 mM, inhibitor 1e-5 uM
  SPAK kinase activity signal (Fig S3 source data): 880 and 891 and 864
ATP 1 mM, inhibitor 0.0001 uM
  SPAK kinase activity signal (Fig S3 source data): 892 and 902 and 916
ATP 1 mM, inhibitor 0.001 uM
  SPAK kinase activity signal (Fig S3 source data): 869 and 902 and 885
ATP 1 mM, inhibitor 0.03 uM
  SPAK kinase activity signal (Fig S3 source data): 812 and 786 and 753
ATP 1 mM, inhibitor 0.1 uM
  SPAK kinase activity signal (Fig S3 source data): 862 and 807 and 759
ATP 1 mM, inhibitor 0.3 uM
  SPAK kinase activity signal (Fig S3 source data): 768 and 789 and 736
ATP 1 mM, inhibitor 1 uM
  SPAK kinase activity signal (Fig S3 source data): 662 and 719 and 681
ATP 1 mM, inhibitor 3 uM
  SPAK kinase activity signal (Fig S3 source data): 641 and 604 and 563
ATP 1 mM, inhibitor 10 uM
  SPAK kinase activity signal (Fig S3 source data): 554 and 604 and 587
ATP 1 mM, inhibitor 100 uM
  SPAK kinase activity signal (Fig S3 source data): 453 and 345 and 405
ATP 1 mM, inhibitor 1000 uM
  SPAK kinase activity signal (Fig S3 source data): 222 and 164 and 186
ATP between 0.01 and 1 mM
  change of SPAK IC50 values with increasing ATP concentration: unchanged; also recorded: unaffected by changing [ATP]
ZT-1a 1e-5 uM
  ZT-1a vs SPAK+MO25, kinase activity: 401897 C.P.M and 396529 C.P.M and 387112 C.P.M
ZT-1a 0.0001 uM
  ZT-1a vs SPAK+MO25, kinase activity: 393641 C.P.M and 402385 C.P.M and 384718 C.P.M
ZT-1a 0.001 uM
  ZT-1a vs SPAK+MO25, kinase activity: 392612 C.P.M and 367664 C.P.M and 337143 C.P.M
ZT-1a 0.003 uM
  ZT-1a vs SPAK+MO25, kinase activity: 363431 C.P.M and 388438 C.P.M and 371694 C.P.M
ZT-1a 0.01 uM
  ZT-1a vs SPAK+MO25, kinase activity: 359080 C.P.M and 382836 C.P.M and 362174 C.P.M
ZT-1a 0.03 uM
  ZT-1a vs SPAK+MO25, kinase activity: 408327 C.P.M and 384102 C.P.M and 373519 C.P.M
ZT-1a 0.1 uM
  ZT-1a vs SPAK+MO25, kinase activity: 381538 C.P.M and 398205 C.P.M and 371203 C.P.M
ZT-1a 0.3 uM
  ZT-1a vs SPAK+MO25, kinase activity: 371591 C.P.M and 394205 C.P.M and 361553 C.P.M
